Here are results for 25 compounds from patent publication US6288122A, “Gardos channel antagonists” (Icagen, Inc., priority 1999, dated 2001).

In data set [1] the target is T1, IKs (Cavia porcellus, UniProt O70344).
T1 construct: Recordings of IKs current were made using the whole cell patch clamp methodology on guinea pig myocytes; endogenous in cells; host or cells: guinea pig myocytes (method of Turgeon et al., Circ. Res. 75: 879-86, 1994)
Description: Whole cell patch clamp recordings of IKs current in guinea pig myocytes. It is filed as cell-based. The note with it: estimated IC50, read-out: Est. IC50 Potency vs. IKs.

Data set [2] has as its target T2, Gardos channel (Homo sapiens, UniProt O15554).
T2 construct: endogenous in cells; host or cells: red blood cells from heparinized whole blood
Description: Inhibition of the Gardos channel in red blood cells (86Rb flux). It is filed as cell-based. The settings on record: for improvement in potency (Gardos) over non-fluorinated triphenylacetamide 20: vs. compound 20. From the text: The activity of the compounds of the invention towards ion channels, such as the Gardos channel can be assayed utilizing methods known in the art. […] Utilizing the methods described in this reference, both the percent inhibition of the Gardos channel and the IC50 of the compounds of the invention can be assayed.
In an exemplary assay, the inhibition by test compounds of an erythrocyte Gardos channel can be assayed using human red blood cells. The degree of inhibition can be measured using a detectable material such as ^86 Rb. In an exemplary assay, utilizing ^86 Rb, Gardos channel inhibition can be assayed by exposing red blood cells to ^86 Rb and a test compound and measuring the amount of ^86 Rb taken up by the cells. Numerous variations on this assay will be apparent to those of skill in the art.
Briefly, erythrocytes are exposed to a test compound and a ^86 Rb-containing medium. The initial rate of ^86 Rb transport can be calculated from a parameter such as the linear least square slope of ^86 Rb uptake by the cell(s). Inhibitory constants can be calculated by standard methods using computer-assisted nonlinear curve fitting.
Heparinized whole blood was washed three times with Modified Flux Buffer (MFB: 140 mM NaCl; 5 mM KCl; 10 mM Tris; 0.1 mM EGTA; pH=7.4). Washed cells were then incubated for 3 hours with ^86 Rb (5 μCi/mL). After this incubation period, the RBCs were washed three times with cold MFB. Washed ^86 Rb loaded RBCs were then incubated with a test compound of the invention for 10 minutes. ^86 Rb flux was then initiated by the addition of 20 μL/mL of a MFB solution containing 10 mM CaCl2 and 100 μM A23187, a calcium ionophore. This yielded a final concentration of 200 μM CaCl2 and 2 μM A23187 n the incubation medium. Cells were incubated for 10 minutes, spun down and the supernatant was removed. Samples were counted in a Wallace Microbeta liquid scintillation counter by Cerenkov emission. Total RBC ^86 Rb content was determined by lysing the RBCs with water and then precipitating protein using a 50:50 mixture of ethanol:chloroform. After a 20 minute microfuge spin, the aqueous and organic layers separated and the aqueous layer was removed and counted. Efflux is expressed as a percentage of the initial cell content of ^86 Rb.

Another data set in a line: in vitro. The note with it: human, microsomes, pH 7.4.
The subject of data set [3] is Gardos channel of normal and sickle erythrocytes. The note with it: cited from earlier work; for inhibition of Gardos channel / Ca2+-activated K+ flux: in vitro.
Data set [4] concerns Gardos channel. The note with it: oral therapy; cited from earlier work.
The test system of data set [5] is IKs. The settings on record: myocytes; cited from earlier work.
The test system of a further data set is sickled cells. The note with it: combined with a compound which stabilizes the oxyconformation of Hb S; cited from earlier work.
Another data set concerns red cell Gardos channel. The settings on record: oral administration; cited from earlier work.
The nature of data set [6]: Pharmacokinetic study in the rat (i.v. and p.o.). Format: in vivo, male, Sprague-Dawley rats. On the procedure: Pharmacokinctic studies were conducted in rats to extend the finding that selected fluoro substitution of the phenyl rings increased metabolic stability in vitro to an in vivo study. […] Blood samples were collected at 9 time points from predosing to 24 hours after dosing p.o. and at 11 time points from pre-dosing to 24 hours after i.v. dosing. Samples were prepared and analyzed for compound plasma concentration using LC-MS/MS.

In another data set the test system is IKs vs. Gardos. Description: Selectivity for the Gardos channel relative to IKs (ratio of IC50s).
[7] abbreviates: erythrocytes, 86Rb, read-out: IC50 Potency vs. Gardos.

Several values for one entry are separate records, joined by “and”; a condition that tells them apart may be missing. Identical values can stand only once. Entries after “also recorded” stand apart in the source; their conditions may differ. Like-named read-outs stand apart in the source and are kept apart here.

T2 sequence (O15554 whole entry): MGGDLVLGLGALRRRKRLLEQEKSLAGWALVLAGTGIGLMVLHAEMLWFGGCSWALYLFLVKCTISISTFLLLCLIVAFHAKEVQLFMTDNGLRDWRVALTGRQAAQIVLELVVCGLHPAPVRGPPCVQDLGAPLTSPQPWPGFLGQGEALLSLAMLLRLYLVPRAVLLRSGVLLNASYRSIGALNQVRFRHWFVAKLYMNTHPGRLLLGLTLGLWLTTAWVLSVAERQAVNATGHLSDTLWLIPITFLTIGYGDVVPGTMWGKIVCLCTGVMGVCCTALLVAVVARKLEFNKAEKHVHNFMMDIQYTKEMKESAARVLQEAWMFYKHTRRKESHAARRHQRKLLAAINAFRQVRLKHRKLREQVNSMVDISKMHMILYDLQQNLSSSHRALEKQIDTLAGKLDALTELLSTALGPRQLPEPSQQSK
T1 sequence (Q60409 whole entry): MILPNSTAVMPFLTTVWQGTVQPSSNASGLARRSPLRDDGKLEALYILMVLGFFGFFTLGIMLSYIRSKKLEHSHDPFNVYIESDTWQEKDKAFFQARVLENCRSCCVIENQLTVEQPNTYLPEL
T1 sequence (O70344 whole entry): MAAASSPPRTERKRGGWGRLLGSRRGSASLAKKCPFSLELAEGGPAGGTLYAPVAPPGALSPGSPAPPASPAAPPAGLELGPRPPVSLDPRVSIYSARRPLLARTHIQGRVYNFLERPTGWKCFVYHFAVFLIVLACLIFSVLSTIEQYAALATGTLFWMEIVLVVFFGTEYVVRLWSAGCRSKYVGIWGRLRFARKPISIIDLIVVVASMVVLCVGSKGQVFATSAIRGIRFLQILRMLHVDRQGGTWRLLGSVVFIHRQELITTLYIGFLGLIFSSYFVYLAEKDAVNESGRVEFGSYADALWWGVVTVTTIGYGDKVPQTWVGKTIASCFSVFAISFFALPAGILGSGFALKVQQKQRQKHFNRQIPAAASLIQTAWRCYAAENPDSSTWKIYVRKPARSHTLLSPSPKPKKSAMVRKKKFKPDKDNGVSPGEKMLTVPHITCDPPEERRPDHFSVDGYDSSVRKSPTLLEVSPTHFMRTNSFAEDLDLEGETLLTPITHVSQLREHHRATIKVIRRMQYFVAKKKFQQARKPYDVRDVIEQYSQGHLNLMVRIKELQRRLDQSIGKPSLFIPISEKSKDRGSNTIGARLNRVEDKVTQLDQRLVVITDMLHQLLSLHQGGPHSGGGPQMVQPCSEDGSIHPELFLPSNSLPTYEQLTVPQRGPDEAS
Description for IKs vs. Gardos: Recordings of IKs current were made using the whole cell patch clamp methodology on guinea pig myocytes as described in Turgeon et al., Circulation Research 75: 879-86 (1994).
The selectivity of a particular compound for the Gardos channel relative to another potassium ion channel is conveniently determined as a ratio of two compound binding-related quantities (e.g., IC50).
The selectivity of the compounds for the Gardos channel was determined relative to IKs, an exemplary potassium ion channel.
Description for in vitro: The stability of the compounds in various biological milieus can be assayed by methods known in the art. In one embodiment, the stability of the compounds is assayed in an in vitro preparation. In a preferred embodiment, the in vitro preparation is a liver microsome preparation.
The reaction mixture contained 1.0 mg/ml human liver microsomal protein, 100 mM potassium phosphate (pH 7.4), 10 mM MgCl2 and an NADPH-generating system. The compounds were tested at a concentration of 5ΓM at 37° C. and the amount of intact compound remaining in the mixture after two hours calculated in terms of percent of original dose remaining.

For the compound `NC(=O)[C@@](c1ccccc1)(c1ccc(F)cc1)c1ccccc1F` [Compound 11], the IC50 (usually the point on the concentration scale where inhibition reaches its midpoint) was 1.3 µM on IKs [1] and 0.005 µM on Gardos channel [2] (setting [7]). The “increase in potency (Gardos) of 11 over 9” value on Gardos channel [2] stood at 600%. The share remaining (commonly the share of the starting amount still present when the sample was taken) at 2 h, 5 µM in “in vitro” worked out at 78%.

On to `Clc1ccccc1C(c1ccccc1)(c1ccccc1)n1ccnc1` [Compound 19, clotrimazole], for which the “inhibition of Gardos channel / Ca2+-activated K+ flux” value in [3] was “specific, potent inhibitor of the Gardos channel of normal and sickle erythrocytes; also recorded: blocks Ca^2+ -activated K^+ flux and cell dehydration in sickle erythrocytes”. For the same compound, the “effects of oral clotrimazole in patients with sickle cell disease” value in the data set on Gardos channel [4] is “induces inhibition of the Gardos channel and reduces erythrocyte ehydration”. The “interaction with IKs” value in the data set on IKs [5] is “interact with the slow component of the delayed rectifier potassium current in myocytes, IKs”. Also, the “clogging rate of a micropore filter” value with sickled cells is listed as “additive reduction in the clogging rate of a micropore filter”. Further, the amount remaining at 2 h, 5 µM in “in vitro” came to 4%. For the same compound, in the data set with red cell Gardos channel, the “effects of oral clotrimazole in SAD-1 mouse” value was “inhibition of the red cell Gardos channel, increased red cell K^+ content, a decreased mean corpuscular hemoglobin concentration (MCHC) and decreased cell density”.

Turning to `Clc1ccc(COC(Cn2ccnc2)c2ccc(Cl)cc2Cl)c(Cl)c1` (stereo not shown) [miconazole], in data set [3], the “sickle cell dehydration” value is “effective at reducing sickle cell dehydration” and the “inhibition of Gardos channel / Ca2+-activated K+ flux” value is reported as “inhibit the Gardos channel in vitro”.

As for `NC(=O)C(c1ccccc1)(c1ccccc1)c1ccc(F)c(F)c1` [Compound 7], the IC50 at IKs [1] was 1.2 µM. In “in vitro”, this compound registered a metabolised at 2 h, 5 µM of 85% and a share remaining at 2 h, 5 µM of 15%.

As for `NC(=O)C(c1ccccc1)(c1cccc(F)c1)c1cccc(F)c1` [Compound 9], at IKs [1], the IC50 was 3.2 µM. In addition, the IC50 on Gardos channel [2] (setting [7]) stood at 0.03 µM. In the data set “in vitro”, this compound yielded a metabolised at 2 h, 5 µM of 97% and a fraction remaining at 2 h, 5 µM of 3%.

On to `CNC(=O)C(c1ccccc1)(c1ccccc1)c1ccccc1` [Compound 22, reference compound], for which the figures for the IC50 at IKs [1] and at Gardos channel [2] (setting [7]) were 2.6 µM and 0.1 µM, respectively. In the data set “in vitro”, this compound had an amount remaining at 2 h, 5 µM of 8%.

`NC(=O)C(c1ccccc1)(c1ccc(F)cc1)c1ccc(F)cc1` [Compound 3, bis(4-fluorophenyl)phenylacetamide]: the bioavailability (in general, the share of a dose that reaches the circulation, judged against a reference dose that is usually intravenous) in data set [6] (plasma, po, 10 mg/kg p.o., 1 mg/kg i.v., rat) turned out to be 100%. On IKs [1], the IC50 was 1.5 µM. In the data set “in vitro”, this compound came in with a metabolised at 2 h, 5 µM of 24% and an amount remaining at 2 h, 5 µM of 76%.

In the case of `NC(=O)C(c1ccc(F)cc1)(c1ccc(F)cc1)c1ccc(F)cc1` [Compound 13], at IKs [1], the IC50 is 1.1 µM. The compound further showed an amount remaining at 2 h, 5 µM in “in vitro” of 53%.

As to `NC(=O)C(c1ccccc1)(c1ccccc1)c1ccccc1` [Compound 20, reference compound], the IC50 at IKs [1] is 1.1 µM. Besides, the IC50 on Gardos channel [2] (setting [7]) is 0.05 µM. In the data set “in vitro”, this compound registered a metabolised at 2 h, 5 µM of 87% and a share remaining at 2 h, 5 µM of 13%.

As to `NC(=O)C(c1ccc(F)cc1)(c1ccccc1F)c1ccccc1F` [Compound 15], in “in vitro”, the share remaining at 2 h, 5 µM stood at 53%.

On to `NC(=O)C(c1ccccc1)(c1ccccc1)c1c(F)c(F)c(F)c(F)c1F` [Compound 6], for which, at Gardos channel [2] (setting [7]), the IC50 was determined as 0.037 µM.

As to `Clc1ccc(CCC(Cn2ccnc2)Sc2c(Cl)cccc2Cl)cc1` (stereo not shown) [butoconazole], in data set [3], the “sickle cell dehydration” value is given as “effective at reducing sickle cell dehydration” and the “inhibition of Gardos channel / Ca2+-activated K+ flux” value is “inhibit the Gardos channel in vitro”.

`NC(=O)C(c1ccccc1)(c1ccccc1)c1ccc(F)cc1F` [Compound 8]: at IKs [1], the IC50 was 5.7 µM. In addition, the IC50 at Gardos channel [2] (setting [7]) amounted to 0.034 µM. Besides, in “in vitro”, the metabolised at 2 h, 5 µM came to 61% and the share remaining at 2 h, 5 µM worked out at 39%.

For the compound `NC(=O)C(c1ccc(F)cc1)(c1ccc(F)cc1)c1ccccc1F` [Compound 5, bis(4-fluorophenyl)-2-fluorophenylacetamide], the “fold more selective for the Gardos channel versus IKs than clotrimazole” value in the data set on IKs vs. Gardos (vs. clotrimazole) is ~18 fold and ~17 fold. In addition, the “fold more selective for the Gardos channel than the unsubstituted triphenylacetamide parent 20” value in the data set with IKs vs. Gardos (vs. compound 20) was “approximately 6 fold”. Further, at IKs [1], the IC50 was 1.4 µM. Also, the “fold more potent than clotrimazole towards the Gardos channel” value on Gardos channel [2] is listed as roughly 10 fold. In “in vitro”, the metabolised at 2 h, 5 µM was found to be 29% and the fraction remaining at 2 h, 5 µM worked out at 71%.

For `NC(=O)[C@](c1ccccc1)(c1ccc(F)cc1)c1ccccc1F` [Compound 12], the IC50 at IKs [1] was 1.8 µM. For the same compound, at Gardos channel [2], the “improvement in potency (Gardos) of 12 over 8” value was roughly 700%, the “increase in potency (Gardos) over clotrimazole” value amounted to 2000% and the “improvement in potency (Gardos) over non-fluorinated triphenylacetamide 20” value is 1000%. The IC50 at Gardos channel [2] (setting [7]) was found to be 0.005 µM. The compound further showed a share remaining at 2 h, 5 µM in “in vitro” of 44%.

As to `NC(=O)C(c1ccc(F)cc1)(c1cccc(F)c1)c1cccc(F)c1` [Compound 10], the “Selectivity (IKs vs. Gardos)” value in the data set on IKs vs. Gardos (ratio of IC50 towards IKs vs. IC50 towards the Gardos channel) was determined as 110. Further, the IC50 on IKs [1] was 1.3 µM; on Gardos channel [2] (setting [7]), 0.012 µM. Further, in “in vitro”, the amount remaining at 2 h, 5 µM was found to be 59%.

In data set [6] (10 mg/kg p.o., 1 mg/kg i.v., rat), `NC(=O)C(c1ccccc1)(c1ccc(F)cc1)c1ccccc1F` (stereo not shown) [Compound 1, (2-fluorophenyl)-(4-fluorophenyl)phenylacetamide] had an oral bioavailability of 35%. The IC50 at IKs [1] is 2 µM. In “in vitro”, this compound gave a share remaining at 2 h, 5 µM of 64%.

Take `NC(=O)C(c1cccc(F)c1)(c1cccc(F)c1)c1cccc(F)c1` [Compound 17]: the IC50 at IKs [1] was 4 µM. In “in vitro”, this compound gave a metabolised at 2 h, 5 µM of 82% and a share remaining at 2 h, 5 µM of 18%.

For `OC(c1ccccc1)(c1ccccc1)c1ccccc1Cl` [Compound 21, reference compound], the IC50 was 2.6 µM on IKs [1] and 0.5 µM on Gardos channel [2]. Moreover, the amount remaining at 2 h, 5 µM in the data set “in vitro” was 35%.

`NC(=O)C(c1ccccc1)(c1ccccc1)c1ccc(F)cc1` [Compound 4]: the IC50 at Gardos channel [2] (setting [7]) is 0.013 µM. In the data set “in vitro”, this compound yielded an amount remaining at 2 h, 5 µM of 80%.

For `Clc1ccc(COC(Cn2ccnc2)c2ccc(Cl)cc2Cl)cc1` (stereo not shown) [econazole], in [3], the “sickle cell dehydration” value is listed as “effective at reducing sickle cell dehydration” and the “inhibition of Gardos channel / Ca2+-activated K+ flux” value is “inhibit the Gardos channel in vitro”.

With `NC(=O)C(c1ccccc1)(c1ccccc1)c1ccccc1F` [Compound 2], at Gardos channel [2] (setting [7]), the IC50 was found to be 0.015 µM. The “improvement in potency (Gardos) over non-fluorinated triphenylacetamide 20” value on Gardos channel [2] worked out at 330%. The share remaining at 2 h, 5 µM in “in vitro” amounted to 80%.

Consider `NC(=O)C(c1ccccc1)(c1ccccc1)c1ccccc1Cl` [Compound 18], for which the “elimination from the bloodstream” value in data set [6] (1 mg/kg i.v., rat) is reported as “fast”. Also, the “plasma level after oral dosing” value is listed as “no detectable levels” in data set [6] (10 mg/kg p.o., 2 hour post-dose sample); 31 to 65 ng/mL in [6] (10 mg/kg p.o., between 0.25 and 1 hour after dosing). For the same compound, the “oral bioavailability” value in [6] (10 mg/kg p.o., rat) is “very poor oral bioavailability”. Also, the IC50 on IKs [1] is 7.3 µM; against Gardos channel [2], 0.01 µM. In the data set “in vitro”, the share remaining at 2 h, 5 µM came to 6%.

`NC(=O)C(c1ccccc1)(c1ccccc1F)c1ccccc1F` [Compound 14] came in with a share remaining at 2 h, 5 µM in the data set “in vitro” of 46%.

For the compound `NC(=O)C(c1ccc(F)cc1)(c1ccc(F)cc1)c1cccc(F)c1` [Compound 16, bis(4-fluorophenyl)-3-fluorophenylacetamide], at IKs [1], the IC50 is 1.9 µM. In “in vitro”, the fraction remaining at 2 h, 5 µM is 57%.
